Earlier results as cited in US20050282937A1, “Electrochemical compatibilizer and hydrophobic wetting agent for fiber reinforced vinyl esters and related thermosets” (priority 2004, published 2005).
Values after ≈ are worked out from the molar mass of the structure shown. Read-outs that look alike come from different tables or passages of the source.

How the values were obtained:
Actinomyces naeslundi = details: Oral Bacteria
[1] = tested on: Corynebacterium (Propionibacterium) acnes; details: Bacteria associated with polymeric medical devices, strain ATCC6919
[2] = catheters of ethylvinyl acetate and polypropylene, up to 2.0 wt %
Pseudomonas aeruginosa = details: Bacteria associated with polymeric medical devices
Escherichia coli [3] = details: Bacteria associated with polymeric medical devices
P. acnes = details: Fresh isolate from human plaque, Colgate-Palmolive data, strain 1305
[4] = tested on: Actinomyces odontolyticus
Laboratory rats = details: ingestion
Steptococcus sanguis = details: Oral Bacteria, laboratory strain 34
[5] = tested on: Staphlococcus epidermidis; details: Bacteria associated with polymeric medical devices, strain ATCC12228
S. mitior = details: Fresh isolate from human plaque, Colgate-Palmolive data
Staphlococcus aureus = details: Bacteria associated with polymeric medical devices
Bacteroides intermedius = details: Oral Bacteria
P. anaerobius = details: Fresh isolate from human plaque, Colgate-Palmolive data
Steptococcus sobrinus = details: Oral Bacteria, laboratory strain OMZ176
W. recta = details: Fresh isolate from human plaque, Colgate-Palmolive data, strain not given
C. ochracea = details: Oral Bacteria, laboratory strain NCTC11654
[6] = over a 24-hour period, thermoset dental compound containing 1.0 wt % additive
Staphylococcus aureus = details: catheters of ethylvinyl acetate and polypropylene, up to 2.0 wt %, rabbits
Lactobacilli = details: Oral Bacteria, strain not given
Streptococcus mutans [7] = details: dental composite, 1.0 wt % concentration, twenty four-hour period
Candida albicans = details: Yeast
[8] = tested on: Actinomyces actinomycetemcomitans; details: Fresh isolate from human plaque, Colgate-Palmolive data
Streptococcus mutans [9] = details: Oral Bacteria, laboratory strain 6715
[10] = tested on: Actinobacillus actinomycesemcomitans; details: Oral Bacteria, laboratory strain Y4
Streptococcus mitor = details: Oral Bacteria
[11] = tested on: Peptostreptococcus micros; details: Fresh isolate from human plaque, Colgate-Palmolive data, strain 1422
Capnocytophaga spp = details: Fresh isolate from human plaque, Colgate-Palmolive data
Escherichia coli [12] = details: catheters of ethylvinyl acetate and polypropylene, up to 2.0 wt %, rabbits
Salmonella enteritidis = details: Bacteria associated with polymeric medical devices, strain A
Actinomyces israeli = details: Oral Bacteria, laboratory strain NCTC8047
[13] = tested on: Staphylococcus epidermidis; details: catheters of ethylvinyl acetate and polypropylene, up to 2.0 wt %, rabbits
Bacteroides gingivalis = details: Oral Bacteria, laboratory strain 381
S. milleri = details: Fresh isolate from human plaque, Colgate-Palmolive data
[14] = tested on: Staphlococcus saprohyticus; details: Bacteria associated with polymeric medical devices, strain NCTC7292
Staphlococcus hominus = details: Bacteria associated with polymeric medical devices, strain ATCC27844
Listeria monocytogenes = details: Bacteria associated with polymeric medical devices, strain ATCC15313
Staphlococcus hyicus = details: Bacteria associated with polymeric medical devices, strain ATCC27844
[15] = tested on: Peptococcus asacchrolyticus; details: Oral Bacteria, laboratory strain NCTC
Porphyromonas gingivalis = details: Oral Bacteria, laboratory strain OMZ309

Oc1cc(Cl)ccc1Oc1ccc(Cl)cc1Cl [Triclosan]
Minimum inhibitory Triclosan concentration (Actinomyces naeslundi; laboratory strain 12104): 1.0 µg/mL | Minimum inhibitory Triclosan concentration (Actinomyces naeslundi; laboratory strain A): 1.0 µg/mL | Minimum inhibitory Triclosan concentration [1]: 3.0 µg/mL | leaching [2]: high leaching | Minimum inhibitory Triclosan concentration (Pseudomonas aeruginosa; strain ATCC12055): >1000 µg/mL | Minimum inhibitory Triclosan concentration (Pseudomonas aeruginosa; strain NCTC8060): >1000 µg/mL | Minimum inhibitory Triclosan concentration (Escherichia coli [3]; strain ATCC9661): 0.3 µg/mL | Minimum inhibitory Triclosan concentration (Escherichia coli [3]; strain ATCC43888): 0.1 µg/mL | Minimum inhibitory Triclosan concentration (Escherichia coli [3]; strain NCTC8196): 0.02 µg/mL | Minimum inhibitory Triclosan concentration (Escherichia coli [3]; strain NCTC11186): 0.5 µg/mL | Minimum inhibitory Triclosan concentration (P. acnes): 2.3 µg/mL | Minimum inhibitory Triclosan concentration ([4]; Fresh isolate from human plaque, Colgate-Palmolive data, strain 1041): 0.8 µg/mL | Minimum inhibitory Triclosan concentration ([4]; Fresh isolate from human plaque, Colgate-Palmolive data, strain 1431): 0.8 µg/mL | Minimum inhibitory Triclosan concentration ([4]; Oral Bacteria, laboratory strain NCTC9935): 0.8 µg/mL | amount ingested without ill effect (Laboratory rats): greater than 5000 mg/Kg | Minimum inhibitory Triclosan concentration (Steptococcus sanguis): 2.0 µg/mL | Minimum inhibitory Triclosan concentration [5]: <0.125 µg/mL | Minimum inhibitory Triclosan concentration (S. mitior; strain 1384): 2.3 µg/mL | Minimum inhibitory Triclosan concentration (S. mitior; strain 1387): 2.3 µg/mL | Minimum inhibitory Triclosan concentration (Staphlococcus aureus; strain ATCC9144): 0.05 µg/mL | Minimum inhibitory Triclosan concentration (Staphlococcus aureus; strain ATCC29213): <0.125 µg/mL | Minimum inhibitory Triclosan concentration (Staphlococcus aureus; strain NCTC11150): 0.02 µg/mL | Minimum inhibitory Triclosan concentration (Staphlococcus aureus; strain NCTC12232): 0.01 µg/mL | Minimum inhibitory Triclosan concentration (Bacteroides intermedius; laboratory strain 581): 2.5 µg/mL | Minimum inhibitory Triclosan concentration (Bacteroides intermedius; laboratory strain NCTC9336): 0.4 µg/mL | Minimum inhibitory Triclosan concentration (P. anaerobius; strain 580): 0.6 µg/mL | Minimum inhibitory Triclosan concentration (P. anaerobius; strain 1198): 2.3 µg/mL | Minimum inhibitory Triclosan concentration (Steptococcus sobrinus): 11.0 µg/mL | Minimum inhibitory Triclosan concentration (W. recta): 0.8 µg/mL | solubility (sparingly soluble) (at 20 C°): 0.001 grams per liter | Triclosan water solubility (at 37 C. °): Triclosan water solubility approximately 30 ug/ml at 37 C. ° | water solubility (at 50 C°): 40 µg/mL (≈ 138 µM) | Minimum inhibitory Triclosan concentration (C. ochracea): <0.4 µg/mL | Triclosan release in water [6]: 0.02 ppm | effectiveness against Staphylococcus aureus (Staphylococcus aureus): effectiveness | Minimum inhibitory Triclosan concentration (Lactobacilli): 33.0 µg/mL | Streptococcus mutans formation and adhesion (Streptococcus mutans [7]): reduced Streptococcus mutans formation and adhesion | Minimum inhibitory Triclosan concentration (Candida albicans; strain A): 10.0 µg/mL | Minimum inhibitory Triclosan concentration (Candida albicans; strain ATCC10259): 3.0 µg/mL | Minimum inhibitory Triclosan concentration ([8]; strain 1426): <0.3 µg/mL | Minimum inhibitory Triclosan concentration ([8]; strain 1483): <0.3 µg/mL | Minimum inhibitory Triclosan concentration (Streptococcus mutans [9]): 5.0 µg/mL | Minimum inhibitory Triclosan concentration [10]: 5.0 µg/mL | Minimum inhibitory Triclosan concentration (Streptococcus mitor; laboratory strain NCTC7864): 0.8 µg/mL | Minimum inhibitory Triclosan concentration (Streptococcus mitor; laboratory strain NCTC10712): 1.1 µg/mL | Minimum inhibitory Triclosan concentration [11]: 3.1 µg/mL | Minimum inhibitory Triclosan concentration (Capnocytophaga spp; strain 287): 0.8 µg/mL | Minimum inhibitory Triclosan concentration (Capnocytophaga spp; strain 290): 2.3 µg/mL | Minimum inhibitory Triclosan concentration (Capnocytophaga spp; strain 310): 0.8 µg/mL | Minimum inhibitory Triclosan concentration (Actinomyces viscosus; Fresh isolate from human plaque, Colgate-Palmolive data, strain 1218): 0.8 µg/mL | Minimum inhibitory Triclosan concentration (Actinomyces viscosus; Oral Bacteria, laboratory strain NCTC10951): 0.8 µg/mL | Minimum inhibitory Triclosan concentration (Actinomyces viscosus; Oral Bacteria, laboratory strain T14V): 5.0 µg/mL | Minimum inhibitory Triclosan concentration (Fusobacterium nucleatum; Fresh isolate from human plaque, Colgate-Palmolive data, strain 1446): 0.8 µg/mL | Minimum inhibitory Triclosan concentration (Fusobacterium nucleatum; Oral Bacteria, laboratory strain NCTC10562): 1.2 µg/mL | effectiveness against Escherichia coli (Escherichia coli [12]): effectiveness | Minimum inhibitory Triclosan concentration (Salmonella enteritidis): 0.1 µg/mL | Minimum inhibitory Triclosan concentration (Actinomyces israeli): 1.0 µg/mL | effectiveness against Staphylococcus epidermidis [13]: effectiveness | Minimum inhibitory Triclosan concentration (Bacteroides gingivalis): 2.5 µg/mL | Minimum inhibitory Triclosan concentration (S. milleri; strain 1339): 2.3 µg/mL | Minimum inhibitory Triclosan concentration (S. milleri; strain 1391): 2.3 µg/mL | Minimum inhibitory Triclosan concentration [14]: 0.1 µg/mL | Minimum inhibitory Triclosan concentration (Staphlococcus hominus): 1.0 µg/mL | Minimum inhibitory Triclosan concentration (Listeria monocytogenes): 1.0 µg/mL | Minimum inhibitory Triclosan concentration (Veillonella parvula; Fresh isolate from human plaque, Colgate-Palmolive data, strain 1167): 6.2 µg/mL | Minimum inhibitory Triclosan concentration (Veillonella parvula; Fresh isolate from human plaque, Colgate-Palmolive data, strain 1459): 2.3 µg/mL | Minimum inhibitory Triclosan concentration (Veillonella parvula; Oral Bacteria, laboratory strain NCTC): 5.4 µg/mL | Minimum inhibitory Triclosan concentration (Staphlococcus hyicus): 0.03 µg/mL | Minimum inhibitory Triclosan concentration [15]: <0.6 µg/mL | Minimum inhibitory Triclosan concentration (Porphyromonas gingivalis): 2.0 µg/mL
